Experimental data: patent publication EP3290412A1, “HIV-1 NUCLEOCAPSID INHIBITORS” (Università degli Studi di Siena, priority 2016, dated 2018)
Read-outs that look alike come from different tables or passages of the source.

Experiments:
NC(11-55) = NC(11-55) (Human immunodeficiency virus type 1, UniProt P12493); assay: NC inhibition assay (NC-induced cTAR DNA destabilization, fluorescence); format: biochemical, HIV-1; details: for inhibition at 100 µM: single point screening, positive = >25% inhibition at 100µM
In short: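 Doubly labelled cTAR (0.1 µM, Alexa488/Dabcyl) pre-complexed with 1 µM Zn-loaded NC(11-55) for 15 min, then compound added for a further 15 min; run at 20 °C in Tris-HCl pH 7.5, 30 mM NaCl, 0.2 mM MgCl2. Fluorescence read at ex 480/em 520 nm. IC50 taken from dose-response fit of % inhibition of NC-induced fluorescence increase.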

[1] = system: HIV-1 reference strain NL4-3; assay: BiCycle assay (MT-2 then TZM-bl cells); format: cell-based
In short: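 MT-2 cells were infected with NL4-3 in the presence of five-fold compound dilutions. After 72 h, the supernatant was passed to TZM-bl cells. Two days later, luciferase luminescence was read and IC50 calculated, giving a readout that spans the whole replication cycle.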

[2] = molecular target: T1, full length (1-55) HIV-1 NCp7 (Human immunodeficiency virus type 1 group M subtype B, UniProt P12493); assay: Electromobility Shift Assay (EMSA), competition for ssDNA binding; details: NCp7 300 nM, M13mp18 ssDNA; positive = >25% inhibition at 100µM
T1 construct: recombinant full length (1-55) HIV-1 NCp7 proteins; made in house
In short: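 Recombinant NL4-3 NCp7 (300 nM in the pre-mix) was combined with compound in 20 mM Tris-HCl pH 7.4, 2 mM MgCl2, 100 mM NaCl, 1 mM DTT, then M13mp18 ssDNA was added for 25 min at 37 °C. Complexes were run on 1% agarose/0.5x TBE and stained with SybrGold. IC50 is the concentration at which bound ssDNA migrated 50% of the bound–unbound distance (triplicate).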

[3] = Human immunodeficiency virus 1, NL43, TZM-bl, read-out: BiCycle IC50 nM
[4] = cTAR DNA 0.1 µM, 1 µM NC(11-55), 20 °C, pH 7.5, read-out: NC inhibition IC50
[5] = Human immunodeficiency virus 1, NL43, MT-2 cells 72 hours then TZM-bl cells two days, NL4-3, read-out: BiCycle IC50

Row | SMILES | IC50 (NC(11-55)) [nM] | inhibition at 100 µM (NC(11-55)) [%] | IC50 [1, 3] [nM] | EMSA screening results [2] | IC50 (NC(11-55); [4]) [nM] | IC50 [1, 5] [nM]
1 | CC1CCCC(NC(=O)c2nc(-c3ccccn3)nc(O)c2O)C1 (stereo not drawn) [Compound 57, 5,6-dihydroxy-N-(3-methylcyclohexyl)-2-(pyridin-2-yl)pyrimidine-4-carboxamide] | 35500 | > 25 | 432 | Positive (A compound showing >25% inhibition when tested at 100µM concentration is considered as "positive") | – | –
2 | CC1(C)CCC(NC(=O)c2nc(-c3ccccn3)nc(O)c2O)CC1 [Compound 58, N-(4,4-dimethylcyclohexyl)-5,6-dihydroxy-2-(pyridin-2-yl)pyrimidine-4-carboxamide] | 23000 | > 25 | 268 | Positive (A compound showing >25% inhibition when tested at 100µM concentration is considered as "positive") | – | –
3 | CC1CCCCC1NC(=O)c1nc(-c2ccccn2)nc(O)c1O (stereo not drawn) [Compound 59, 5,6-dihydroxy-N-(2-methylcyclohexyl)-2-(pyridin-2-yl)pyrimidine-4-carboxamide] | 50000 | > 25 | 408 | Positive (A compound showing >25% inhibition when tested at 100µM concentration is considered as "positive") | – | –
4 | CCNCc1ccc(-c2nc(O)c(O)c(C(=O)N[C@H](C)C3CCCCC3)n2)nc1 [Compound 60, (R)-N-(1-cyclohexylethyl)-2-(5-((ethylamino)methyl)pyridin-2-yl)-5,6-dihydroxypyrimidine-4-carboxamide] | 3500 | > 25 | 694 | Negative | – | –
5 | C[C@@H](NC(=O)c1nc(-c2ccc(NC(=O)OC(C)(C)C)cn2)nc(O)c1O)C1CCCCC1 [Compound 61, tert-butyl (R)-(6-(4-((1-cyclohexylethyl)carbamoyl)-5,6-dihydroxypyrimidin-2-yl)pyridin-3-yl)carbamate] | – | > 25 | 210 | Positive (A compound showing >25% inhibition when tested at 100µM concentration is considered as "positive") | 17000 | –
6 | CC(=O)Nc1ccc(-c2nc(O)c(O)c(C(=O)N[C@H](C)C3CCCCC3)n2)nc1 [Compound 62, (R)-2-(5-acetamidopyridin-2-yl)-N-(1-cyclohexylethyl)-5,6-dihydroxypyrimidine-4-carboxamide] | 15500 | > 25 | 252 | Positive (A compound showing >25% inhibition when tested at 100µM concentration is considered as "positive") | – | –
7 | CC(C)(CNC(=O)c1nc(-c2ccccn2)nc(O)c1O)C1CCCC1 [Compound 63, N-(2-cyclopentyl-2-methylpropyl)-5,6-dihydroxy-2-(pyridin-2-yl)pyrimidine-4-carboxamide] | 7000 | > 25 | 125 | Positive (A compound showing >25% inhibition when tested at 100µM concentration is considered as "positive") | – | –
8 | C[C@H](CC1CCCCC1)NC(=O)c1nc(-c2ccccn2)nc(O)c1O [Compound 64, (R)-N-(1-cyclohexylpropan-2-yl)-5,6-dihydroxy-2-(pyridin-2-yl)pyrimidine-4-carboxamide] | 14500 | > 25 | 210 | Positive (A compound showing >25% inhibition when tested at 100µM concentration is considered as "positive") | – | –
9 | CC(NC(=O)c1nc(-c2ccccn2)nc(O)c1O)C1CCCC1 (stereo not drawn) [Compound 65, N-(1-cyclopentylethyl)-5,6-dihydroxy-2-(pyridin-2-yl)pyrimidine-4-carboxamide] | 47000 | > 25 | 330 | Positive (A compound showing >25% inhibition when tested at 100µM concentration is considered as "positive") | – | –
10 | COc1ccc2nc(-c3nc(O)c(O)c(C(=O)N[C@H](C)C4CCCCC4)n3)ccc2c1 [Compound 66, (R)-N-(1-cyclohexylethyl)-5,6-dihydroxy-2-(6-methoxyquinolin-2-yl)pyrimidine-4-carboxamide] | 8000 | > 25 | 1970 | Positive (A compound showing >25% inhibition when tested at 100µM concentration is considered as "positive") | – | –
11 | Cc1ccc(-c2nc(O)c(O)c(C(=O)N[C@H](C)C3CCCCC3)n2)nc1C [Compound 67, (R)-N-(1-cyclohexylethyl)-2-(,5,6-dimethylpyridin-2-yl)-5,6-dihydroxypyrimidine-4-carboxamide] | – | > 25 | – | Positive (A compound showing >25% inhibition when tested at 100µM concentration is considered as "positive") | – | 1340
12 | COc1cc(-c2nc(O)c(O)c(C(=O)N[C@H](C)C3CCCCC3)n2)nc2ccccc12 [Compound 68, N-[(1R)-1-cyclohexylethyl]-2-(4-methoxyquinolin-2-yl)-5,6-bis(oxidanyl)pyrimidine-4-carboxamide] | – | > 25 | – | Positive (A compound showing >25% inhibition when tested at 100µM concentration is considered as "positive") | – | 240
13 | COc1ccnc(-c2nc(O)c(O)c(C(=O)N[C@@H](C)C3CCCCC3)n2)c1 [Compound 69, N-[(1S)-1-cyclohexylethyl]-2-(4-methoxypyridin-2-yl)-5,6-bis(oxidanyl)pyrimidine-4-carboxamide] | 49000 | > 25 | 357 | Positive (A compound showing >25% inhibition when tested at 100µM concentration is considered as "positive") | – | –
14 | C[C@@H](NC(=O)c1nc(-c2cc(N3CCN(C)CC3)ccn2)nc(O)c1O)C1CCCCC1 [Compound 76, (R)-N-(1-cyclohexylethyl)-5,6-dihydroxy-2-(4-(4-methylpiperazin-1-yl)pyridin-2-yl)pyrimidine-4-carboxamide] | 7000 | > 25 | 565 | Positive (A compound showing >25% inhibition when tested at 100µM concentration is considered as "positive") | – | –
15 | COc1ccnc(-c2nc(O)c(O)c(C(=O)NC3CCC(C)(C)CC3)n2)c1 [Compound 77, N-(4,4-dimethylcyclohexyl)-5,6-dihydroxy-2-(4-methoxypyridin-2-yl)pyrimidine-4-carboxamide] | 23500 | > 25 | 1170 | Positive (A compound showing >25% inhibition when tested at 100µM concentration is considered as "positive") | – | –
16 | C[C@H](NC(=O)c1nc(-c2cc(Cl)ccn2)nc(O)c1O)C1CCCCC1 [Compound 78, (S)-2-(4-chloropyridin-2-yl)-N-(1-cyclohexylethyl)-5,6-dihydroxypyrimidine-4-carboxamide] | 18000 | > 25 | 285 | Positive (A compound showing >25% inhibition when tested at 100µM concentration is considered as "positive") | – | –
17 | Cc1ccnc(-c2nc(O)c(O)c(C(=O)N[C@@H](C)C3CCCCC3)n2)c1 [Compound 79, (S)-N-(1-cyclohexylethyl)-5,6-dihydroxy-2-(4-methylpyridin-2-yl)pyrimidine-4-carboxamide] | 41000 | > 25 | 178 | Positive (A compound showing >25% inhibition when tested at 100µM concentration is considered as "positive") | – | –
18 | C[C@H](NC(=O)c1nc(-c2nccc3ccccc23)nc(O)c1O)C1CCCCC1 [Compound 80, (S)-N-(1-cyclohexylethyl)-5,6-dihydroxy-2-(isoquinolin-1-yl)pyrimidine-4-carboxamide] | 11000 | > 25 | 144 | Positive (A compound showing >25% inhibition when tested at 100µM concentration is considered as "positive") | – | –
19 | C[C@H](NC(=O)c1nc(-c2ccc(N)cn2)nc(O)c1O)C1CCCCC1 [Compound 81, (S)-2-(5-aminopyridin-2-yl)-N-(1-cyclohexylethyl)-5,6-dihydroxypyrimidine-4-carboxamide] | 22000 | > 25 | 222 | Positive (A compound showing >25% inhibition when tested at 100µM concentration is considered as "positive") | – | –
20 | C[C@H](NC(=O)c1nc(-c2nccc3[nH]ccc23)nc(O)c1O)C1CCCCC1 [Compound 86, (S)-N-(1-cyclohexylethyl)-5,6-dihydroxy-2-(1H-pyrrolo[3,2-c]pyridin-4-yl)pyrimidine-4-carboxamide] | – | > 25 | 2280 | Positive (A compound showing >25% inhibition when tested at 100µM concentration is considered as "positive") | 5500 | –
